Source: ChEMBL document CHEMBL1201862, “PubChem BioAssay data set” (2004)
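In this assay, cells in 96-well plates receive the compound at five concentrations for 48 hours. Endpoints are linearly interpolated between the surrounding concentrations. At the GI50, growth is halved.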 Activity calls are given as the source filed them. No stated cut-off is given here; in the data, active = GI50 up to about 1.1 µM and inactive = higher.

Assays:
Assay in all cases: NCI-60 cell line screen, 48 h
[1] = test system: 786-0
[2] = test system: A498
[3] = test system: A549
[4] = test system: ACHN
[5] = test system: BT-549
[6] = test system: CAKI-1
[7] = test system: CCRF-CEM
[8] = test system: COLO 205
[9] = test system: DU-145
[10] = test system: EKVX
[11] = test system: HCT-116
[12] = test system: HCT-15
[13] = test system: HL-60
[14] = test system: HOP-62
[15] = test system: HOP-92
[16] = test system: HT-29
[17] = test system: Hs-578T
[18] = test system: IGROV-1
[19] = test system: K562
[20] = test system: KM12
[21] = test system: LOX IMVI
[22] = test system: M14
[23] = test system: MCF7
[24] = test system: MDA-MB-435
[25] = test system: MDA-N
[26] = test system: MOLT-4
[27] = test system: Malme-3M
[28] = test system: NCI-H226
[29] = test system: NCI-H23
[30] = test system: NCI-H460
[31] = test system: NCI-H522
[32] = test system: NCI/ADR-RES
[33] = test system: OVCAR-3
[34] = test system: OVCAR-4
[35] = test system: OVCAR-5
[36] = test system: OVCAR-8
[37] = test system: PC-3
[38] = test system: RPMI-8226
[39] = test system: RXF 393
[40] = test system: SF-268
[41] = test system: SF-295
[42] = test system: SF-539
[43] = test system: SK-MEL-2
[44] = test system: SK-MEL-5
[45] = test system: SK-OV-3
[46] = test system: SN12C
[47] = test system: SNB-19
[48] = test system: SNB-75
[49] = test system: SR
[50] = test system: SW-620
[51] = test system: T47D
[52] = test system: TK-10
[53] = test system: U-251
[54] = test system: UACC-257
[55] = test system: UACC-62
[56] = test system: UO-31
[57] = test system: HCC 2998
[58] = test system: SK-MEL-28

Measured: GI50

Cc1ccc(C2(N3CCCC3)OC(C)(C)c3cccc4cccc2c34)cc1 (centres undefined)
15.6 µM: [12]
inactive: [1] 18.7 µM | [2] 16.2 µM | [3] 11 µM | [4] 15.8 µM | [5] 15.7 µM | [6] 15.7 µM | [7] 41.1 µM | [8] 15.6 µM | [9] 16.9 µM | [10] 11.4 µM | [11] 15.6 µM | [13] 30.8 µM | [14] 16 µM | [15] 1.48 µM | [16] 13.4 µM | [17] 15.6 µM | [18] 15.9 µM | [19] 22.3 µM | [20] 27.9 µM | [21] 15.7 µM | [22] 17.4 µM | [23] 17.1 µM | [24] 14.8 µM | [25] 16.2 µM | [26] 20.7 µM | [27] 18.1 µM | [28] 15.3 µM | [29] 16.2 µM | [30] 13.5 µM | [31] 12.9 µM | [32] 15 µM | [33] 14.9 µM | [34] 14.5 µM | [35] 15.8 µM | [36] 15.2 µM | [37] 15.4 µM | [38] 22.3 µM | [39] 13.5 µM | [40] 12.9 µM | [41] 14.5 µM | [42] 16.9 µM | [43] 14.7 µM | [44] 15 µM | [45] 15.6 µM | [46] 17.5 µM | [47] 16.3 µM | [48] 13.5 µM | [49] 23.2 µM | [50] 16 µM | [51] 16.3 µM | [52] 16.8 µM | [53] 16 µM | [54] 16.9 µM | [55] 13.7 µM | [56] 15.1 µM

CCCCSc1nsc(N(C(=O)c2ccccc2)C(=O)c2ccccc2)n1
inactive: [1] 32 µM | [2] 31.5 µM | [3] 36.5 µM | [4] 49.1 µM | [5] 29.1 µM | [6] 36.5 µM | [7] 35.8 µM | [8] 20.4 µM | [9] 33.8 µM | [10] 27.5 µM | [57] 25.5 µM | [11] 28.8 µM | [13] 28.1 µM | [14] 34 µM | [15] 26.2 µM | [16] 29.8 µM | [17] 31.2 µM | [18] 41.1 µM | [19] 29.7 µM | [20] 33.5 µM | [21] 26.9 µM | [22] 29 µM | [23] 32.2 µM | [24] 33.7 µM | [25] 30.9 µM | [26] 24.2 µM | [27] 26.9 µM | [28] 29.7 µM | [29] 30.1 µM | [30] 27.5 µM | [31] 25.4 µM | [32] 31.6 µM | [33] 23.7 µM | [34] 57.5 µM | [35] 26.5 µM | [36] 34.8 µM | [37] 33.5 µM | [38] 21.6 µM | [39] 32.3 µM | [40] 35.8 µM | [41] 32.7 µM | [42] 25.1 µM | [58] 40.2 µM | [43] 26.4 µM | [44] 18.8 µM | [45] 31.4 µM | [46] 29.2 µM | [47] 45.5 µM | [48] 25.1 µM | [49] 21.6 µM | [50] 41.4 µM | [51] 37.9 µM | [52] 36.4 µM | [53] 32.4 µM | [54] 27.3 µM | [55] 23.4 µM | [56] 19.5 µM
30.3 µM: [12]
